Where “and” joins values, the source holds several entries; their conditions need not be identical. Equal entries are not always repeated.
Legend:
[1] = test system: SW48 cells; test: Cytotoxicity assay, CellTiter-Glo 2.0, SW48 cells; format: cell-based; details: SW48, human colon cancer cell line expressing wild type kRAS (EGF receptor mutation); 48 hours
Protocol: (§1) FIG. 3, panels A-B, illustrates the cytotoxicity of Structure 2 and Structure 3 on SW48 cells. The cytotoxicity of compounds of interest were tested against the human colon cancer cell line SW48 as described in the experimental section. SW48 cells express the wild type kRAS but are driven by an EGF receptor mutation G1255A. Compounds were incubated with cells for 48 hours and the assay was developed using Cell Titer Glo 2.0. IC50 vales were determined using GraphPad Prism 4.
(§2) Compounds were assayed for inhibition of cell proliferation and killing cancer cells. Cytotoxicity assays were conducted according to the following general procedure. SW480, SW48, SW900, SW620 were all maintained in Leibowitz L15 media supplemented with 10% fetal bovine serum and 1% PenStrep and grown in a 37° C. incubator without supplemental CO2. Capan-1 cells were maintained in Iscove's Modified Dulbecco's Medium (ATCC 30-2005) containing 20% fetal bovine serum and 1% PenStrep and grown in a 37° C. incubator containing 5% CO2.
(§3) For dose-response assays, SW480 cells were plated into 96 well plates (1 million/plate, ˜10,000/well, 250 μL media/well). Cells were allowed to settle and adhere to plate bottom overnight Compounds were placed in 500 μL media and mixed. […] Luminescence was read with FLx800 (BioTek Instruments).

[2] = test system: Capan-1 cells; test: Cytotoxicity assay, CellTiter-Glo 2.0, Capan-1 cells; format: cell-based; details: Capan 1, human pancreatic cancer cell line expressing kRAS G12V; 48 hours
Protocol: as §1, with “5,” for “3,”, “Capan-1” for “SW48”, “pancreatic” for “colon”, “a mutant G12V kRAS.” for “the wild type kRAS but are driven by an EGF receptor mutation G1255A.”
as §2
as §3, with “mixed. Then 250 μL compounds+media was placed in an intermediate plate in row A. Rows B through H were filled with 125 μL media.” for “mixed.”

[3] = test system: H322; test: Cytotoxicity assay, H322 cells; format: cell-based; details: H322, human lung cancer cell line expressing wild type kRAS
Protocol: as §2

[4] = test system: flies expressing G12V in their wing; test: Fly assay, wing phenotype reversal; format: in vivo, Drosophila
Source text: Each wing from mutant flies receiving treatment with either water or compound received a score from two independent scorers according to the scheme outlined in the schematic. The analysis of the scores given to the compound group was compared to the scores given for the control (water) group.
Embryo preparation. GAL4 virgin ♀ were collected over a period of 3-5 days, then crossed with kRAS G12V (3M) ♂ inside a plastic condo supplied with grape agar containing yeast paste. Flies were acclimated for 2 days and embryos present after a span of 4-5 hours were collected along with the agar plate and incubated for 24 hours. The next day, embryos were washed off the agar plate with Embryo Wash solution (120 mM NaCl, 0.03% Triton X) and resuspended in Embryo Inoculation solution (120 mM NaCl, 420 mM Sucrose, 0.05% Triton X-100). Embryos were counted and diluted to 15 embryos/10 μL. 150 embryos (100 μL) were dispensed into each vial.
Food-drug admix preparation. Each fly vial contains 1.5 g of fly food in 4 ml water. The quantity of drug needed is calculated for a total of 4 vials, each vial containing 10 μM of Structure 2. This is equivalent to 0.014 mg of Structure 2/vial, for a total of 0.056 mg of Structure 2.
A stock solution of 0.1 mg/mL Structure 2 in ethanol is prepared. A 500-ml round bottom flask is charged with 6 g of fly food (1.5 g×4), to which is added 20 mL of ethanol, ensuring that the food is entirely covered in solvent. To this heterogeneous solution is added an appropriate amount of Structure 2 stock solution, containing the calculated required quantity, in this case 0.56 mL stock solution.
The ethanol is evaporated under reduced pressure via a rotary evaporator equipped with a bump trap. The resulting dry food is added to three vials, each containing 1.5 g, so that the experiment is performed in triplicate. The quantity is calculated initially for 4 vials, because some food will be stuck to the walls of the round bottom flask and some is also invariably lost in the bump trap during the solvent evaporation step. Control vials lacking Structure 2 or Structure 3 are also analyzed and undergo the exact same food preparation and solvent extraction procedure.
Embryo addition to vials. After all the food-drug admix is prepared and added to the respective vials, to each vial is added 4 mL of water and the vial briefly vortexed. To this liquid mixture is added the embryo solution (100 μL), the vials capped and placed in an incubator or fly room.
Wing mounting and scoring. Flies hatch 10-12 days after the above experimental setup is performed. The resulting adult flies are submerged in a 3:1 70% ethanol:glycerol solution for 24 hours, then wings are dissected with curved Vannas spring scissors (FST #15001-08). The wings are mounted in an 80% glycerol solution on a microscope slide under coverslip seal.
Pictures of the wings were taken using an Accu-Scope microscope equipped with a digital camera and connected to a laptop containing the Accu-Scope Micrometric SE Premium software. The wings were scored according to the following scoring tree:
Wing score analysis. After each wing received a score from two independent scorers, the analysis of the scores given to the Structure 2 and 3 groups was compared to the scores given for the control group and was performed using the IBM SPSS software.
Wings that received a score of 3 or above are considered “reversed”, since their phenotype is closer to WT than to kRAS G12V bearing Drosophila. The findings are plotted in FIG. 9. […]

Cc1nc(-c2ccc(CNC(=O)c3cc(CC(C)C)nn3C)cc2)no1 [Structure 2, 3-isobutyl-1-methyl-N-(4-(5-methyl-1,2,4-oxadiazol-3-yl)benzyl)-1H-pyrazole-5-carboxamide]
IC50 [1]: 607 nM | IC50 [2]: 1300 nM | not cytotoxic at concentrations up to [3]: > 200 µM | Wing score, Scored 1-6, Mean ± SD ([4]; 10 μmolar in fly food, control 1.86 ± 0.62): 2.15 | wing scores compared to the control group ([4]; Tukey HSD and LSD p<0.001, Mann Whitney p=0.002): significantly different from the control group | Reversal Phenotype (%) ([4]; wings with score of 3 or above, Structure 2 at 10 μmolar, control 8.27): 24% and 24.31%

Reference: US12486255B2, “Modulators of RAS GTPase” (Tosk, Inc., priority 2018, dated 2025)
